Reference: patent publication US9481676B2, “Azepino[4,5-B]indoles and methods of use” (Medivation Technologies, Inc., priority 2008, dated 2016)

The compounds below were run against T1, human recombinant adrenergic α2B receptor (Homo sapiens, UniProt P18089) (assay: Adrenergic alpha2B radioligand binding ([3H]Rauwolscine)). Settings: compound at 1 μM; read-out: Adrenergic (1 μM) α2B, percent inhibition of specific binding.
T1 construct: expressed in transfected cells; host or cells: CHO-K1 cells
T1 sequence (P18089 1-450): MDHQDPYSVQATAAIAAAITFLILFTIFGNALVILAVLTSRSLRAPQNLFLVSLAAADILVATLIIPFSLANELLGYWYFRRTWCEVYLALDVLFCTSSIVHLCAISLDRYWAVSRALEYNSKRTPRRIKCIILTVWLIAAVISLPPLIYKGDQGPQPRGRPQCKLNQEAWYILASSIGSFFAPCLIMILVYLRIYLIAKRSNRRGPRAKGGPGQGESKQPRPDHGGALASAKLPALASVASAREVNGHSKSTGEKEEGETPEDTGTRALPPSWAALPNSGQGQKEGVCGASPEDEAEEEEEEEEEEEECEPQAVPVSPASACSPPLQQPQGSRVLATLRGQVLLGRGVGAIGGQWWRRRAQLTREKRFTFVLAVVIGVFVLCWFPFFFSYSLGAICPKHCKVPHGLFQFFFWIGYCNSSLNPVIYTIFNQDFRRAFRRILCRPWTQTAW
Procedure: To evaluate in radioligand binding assays the activity of compounds of the invention, human recombinant adrenergic α2B receptor expressed in Chinese hamster ovary (CHO-K1) cells (Uhlen S et al. Eur J. Pharmacol. 343(1):93, 1998) in a modified Tris-HCl buffer (50 mM Tris-HCl, pH 7.4, 12.5 mM MgCl2, 1 mM EDTA, 0.2% BSA) was used. Compounds of the invention were incubated with 2.5 nM [^3H]Rauwolscine for 60 min. at 25° C. Non-specific binding was estimated in the presence of 10 μM Prozosin. Receptor proteins were filtered and washed, the filters were then counted to determine [^3H]Rauwolscine specifically bound. Compounds were screened at 1 μM or lower, using 1% DMSO as vehicle. Biochemical assay results are presented as the percent inhibition of specific binding in Table 5.

Row | Structure (SMILES) | inhibition at 1 µM [%]
1 | CN1CCc2c(n(CC(C)(O)c3ccc(Cl)cc3)c3ccc(Cl)cc23)CC1 (stereo not shown) [Compound No. 12, 1-(9-chloro-2,3,4,5-tetrahydro-3-methylazepino[4,5-b]indol-6(1H)-yl)-2-(4-chlorophenyl)propan-2-ol] | 103
2 | Cc1ccc2c(c1)c1c(n2CC(C)(O)c2ccc(Cl)cc2)CCN(C)CC1 (stereo not shown) [Compound No. 15, 2-(4-chlorophenyl)-1-(2,3,4,5-tetrahydro-3,9-dimethylazepino[4,5-b]indol-6(1H)-yl)propan-2-ol] | 104
3 | Cc1ccc2c(c1)c1c(n2CCc2ccccc2Cl)CCN(C)CC1 [Compound No. 69, 6-(2-chlorophenethyl)-1,2,3,4,5,6-hexahydro-3,9-dimethylazepino[4,5-b]indole] | -4
4 | Cc1ccc2c(c1)c1c(n2CC(=O)N2CCCC2)CCN(C)CC1 [Compound No. 45, 2-(2,3,4,5-tetrahydro-3,9-dimethylazepino[4,5-b]indol-6(1H)-yl)-1-(pyrrolidin-1-yl)ethanone] | 9
5 | Cc1ccc2c(c1)c1c(n2CC(O)c2ccc(F)cc2)CCN(C)CC1 (stereo not shown) [Compound No. 52, 1-(4-fluorophenyl)-2-(2,3,4,5-tetrahydro-3,9-dimethylazepino[4,5-b]indol-6(1H)-yl)ethanol] | 103
6 | COc1ccc(C(O)Cn2c3c(c4cc(C)ccc42)CCN(C)CC3)cc1 (stereo not shown) [Compound No. 48, 2-(2,3,4,5-tetrahydro-3,9-dimethylazepino[4,5-b]indol-6(1H)-yl)-1-(4-methoxyphenyl) ethanol] | 103
7 | CN1CCc2c(n(CCc3ccc(C(=O)O)nc3)c3ccc(Cl)cc23)CC1 [Compound No. 21, 5-(2-(9-chloro-2,3,4,5-tetrahydro-3-methylazepino[4,5-b]indol-6(1H)-yl)ethyl)pyridine-2-carboxylic acid] | 6
8 | CN1CCc2c(n(CC(O)c3cccnc3)c3ccc(Cl)cc23)CC1 (stereo not shown) [Compound No. 18, 2-(9-chloro-2,3,4,5-tetrahydro-3-methylazepino[4,5-b]indol-6(1H)-yl)-1-(pyridin-3-yl)ethanol] | 98
9 | Cc1ccc2c(c1)c1c(n2CC(O)c2cccnc2)CCN(C)CC1 (stereo not shown) [Compound No. 19, 2-(2,3,4,5-tetrahydro-3,9-dimethylazepino[4,5-b]indol-6(1H)-yl)-1-(pyridin-3-yl)ethanol] | 90
10 | Cc1ccc2c(c1)c1c(n2/C=C/c2ccccc2)CCN(C)CC1 [Compound No. 229, (E)-3,9-dimethyl-6-styryl-1,2,3,4,5,6-hexahydroazepino[4,5-b]indole] | 103
11 | Cc1ccc2c(c1)c1c(n2CCc2ccc(Cl)cc2)CCN(C)CC1 [Compound No. 28, 6-(4-chlorophenethyl)-1,2,3,4,5,6-hexahydro-3,9-dimethylazepino[4,5-b]indole] | 103
12 | CN1CCc2c(n(CCc3ccccc3Cl)c3ccc(Cl)cc23)CC1 [Compound No. 29, 6-(2-chlorophenethyl)-9-chloro-1,2,3,4,5,6-hexahydro-3-methylazepino[4,5-b]indole] | 101
13 | CN1CCc2c(n(/C=C/c3ccc(F)cc3)c3ccc(Cl)cc23)CC1 [Compound No. 234, (E)-9-chloro-6-(4-fluorostyryl)-3-methyl-1,2,3,4,5,6-hexahydroazepino[4,5-b]indole] | 100
14 | CN1CCc2c(n(C#Cc3ccc(F)cc3)c3ccc(Cl)cc23)CC1 [Compound No. 281, 9-chloro-6-((4-fluorophenyl)ethynyl)-3-methyl-1,2,3,4,5,6-hexahydroazepino[4,5-b]indole] | 99
15 | Cc1ccc2c(c1)c1c(n2CC(=O)NC2CCCCC2)CCN(C)CC1 [Compound No. 22, N-cyclohexyl-2-(2,3,4,5-tetrahydro-3,9-dimethylazepino[4,5-b]indol-6(1H)-yl)acetamide] | -7
16 | Cc1ccc2c(c1)c1c(n2CCc2ccncc2)CCN(C)CC1 [Compound No. 6, 1,2,3,4,5,6-hexahydro-3,9-dimethyl-6-(2-(pyridin-4-yl)ethyl)azepino[4,5-b]indole] | 106
17 | Cc1ccc2c(c1)c1c(n2CC(O)c2ccccc2)CCN(C)CC1 (stereo not shown) [Compound No. 25, 2-(2,3,4,5-tetrahydro-3,9-dimethylazepino[4,5-b]indol-6(1H)-yl)-1-phenylethanol] | 104

Row | Structure (SMILES) | inhibition at 1 µM [%]
18 | COc1ccc(/C=C/n2c3c(c4cc(C)ccc42)CCN(C)CC3)c(F)c1 [Compound No. 230, (E)-6-(2-fluoro-4-methoxystyryl)-3,9-dimethyl-1,2,3,4,5,6-hexahydroazepino[4,5-b]indole] | 99
19 | Cc1ccc(C(O)Cn2c3c(c4cc(Cl)ccc42)CCN(C)CC3)cc1 (stereo not shown) [Compound No. 26, 2-(9-chloro-2,3,4,5-tetrahydro-3-methylazepino[4,5-b]indol-6(1H)-yl)-1-p-tolylethanol] | 104
20 | COc1ccc(C(O)Cn2c3c(c4cc(Cl)ccc42)CCN(C)CC3)cc1F (stereo not shown) [Compound No. 67, 2-(9-chloro-2,3,4,5-tetrahydro-3-methylazepino[4,5-b]indol-6(1H)-yl)-1-(3-fluoro-4-methoxyphenyl) ethanol] | 99
21 | CN1CCc2c(n(CCc3ccncc3)c3ccc(Cl)cc23)CC1 [Compound No. 5, 9-chloro-1,2,3,4,5,6-hexahydro-3-methyl-6-(2-(pyridin-4-yl)ethyl)azepino[4,5-b]indole] | 100
22 | Cc1ccc2c(c1)c1c(n2CC(=O)N(C)C2CCCCC2)CCN(C)CC1 [Compound No. 232, N-cyclohexyl-2-(3,9-dimethyl-2,3,4,5-tetrahydroazepino[4,5-b]indol-6(1H)-yl)-N-methylacetamide] | 39
23 | Cc1ccc2c(c1)c1c(n2CC(O)c2ccc(C)nc2)CCN(C)CC1 (stereo not shown) [Compound No. 23, 2-(2,3,4,5-tetrahydro-3,9-dimethylazepino[4,5-b]indol-6(1H)-yl)-1-(6-methylpyridin-3-yl)ethanol] | 25
24 | Cc1ccc(CCn2c3c(c4cc(Cl)ccc42)CCN(C)CC3)cc1 [Compound No. 46, 9-chloro-3-methyl-6-(4-methylphenethyl)-1,2,3,4,5,6-hexahydroazepino[4,5-b]indole] | 107
25 | Cc1ccc2c(c1)c1c(n2CCc2ccc(C(=O)O)nc2)CCN(C)CC1 [Compound No. 11, 5-(2-(2,3,4,5-tetrahydro-3,9-dimethylazepino[4,5-b]indol-6(1H)-yl)ethyl)pyridine-2-carboxylic acid] | 3
26 | Cc1ccc2c(c1)c1c(n2/C=C/c2ccccc2F)CCN(C)CC1 [Compound No. 233, (E)-6-(2-fluorostyryl)-3,9-dimethyl-1,2,3,4,5,6-hexahydroazepino[4,5-b]indole] | 100
27 | CN1CCc2c(n(CCc3ccccc3F)c3ccc(Cl)cc23)CC1 [Compound No. 61, 6-(2-fluorophenethyl)-9-chloro-1,2,3,4,5,6-hexahydro-3-methylazepino[4,5-b]indole] | 103
28 | Cc1ccc2c(c1)c1c(n2CCc2ccccc2)CCN(C)CC1 [Compound No. 62, 1,2,3,4,5,6-hexahydro-3,9-dimethyl-6-phenethylazepino[4,5-b]indole] | 98
29 | CN1CCc2c(n(CC(=O)N(C)C3CCCCC3)c3ccc(Cl)cc23)CC1 [Compound No. 74, 2-(9-chloro-2,3,4,5-tetrahydro-3-methylazepino[4,5-b]indol-6(1H)-yl)-N-cyclohexyl-N-methylacetamide] | 27
30 | CN1CCc2c(n(CC(=O)Nc3ccccc3)c3ccc(Cl)cc23)CC1 [Compound No. 73, 2-(9-chloro-2,3,4,5-tetrahydro-3-methylazepino[4,5-b]indol-6(1H)-yl)-N-phenylacetamide] | 21
31 | COc1ccc(C(O)Cn2c3c(c4cc(Cl)ccc42)CCN(C)CC3)cc1 (stereo not shown) [Compound No. 47, 2-(9-chloro-2,3,4,5-tetrahydro-3-methylazepino[4,5-b]indol-6(1H)-yl)-1-(4-methoxyphenyl)ethanol] | 105
32 | CN1CCc2c(n(CCc3ccc(Cl)cc3)c3ccc(Cl)cc23)CC1 [Compound No. 30, 6-(4-chlorophenethyl)-9-chloro-1,2,3,4,5,6-hexahydro-3-methylazepino[4,5-b]indole] | 100
33 | Cc1ccc2c(c1)c1c(n2CC(=O)NC(C)C)CCN(C)CC1 [Compound No. 54, 2-(2,3,4,5-tetrahydro-3,9-dimethylazepino[4,5-b]indol-6(1H)-yl)-N-isopropylacetamide] | 1
34 | CN1CCc2c(n(CCc3cncc(Cl)c3)c3ccc(Cl)cc23)CC1 [Compound No. 10, 9-chloro-6-(2-(5-chloropyridin-3-yl)ethyl)-1,2,3,4,5,6-hexahydro-3-methylazepino[4,5-b]indole] | 101
